Results reported in ChEMBL document CHEMBL1201862, “PubChem BioAssay data set” (2004).
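Cells were grown in 96-well plates and exposed to each compound for 48 hours at five concentrations; endpoints were interpolated linearly between bracketing concentrations, or set to the highest concentration if not reached. GI50 marks 50% less growth.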 The source made the active and inactive calls. Cut-off read from the data, not from the text of the source: active = GI50 up to about 1.1 µM and inactive = higher.

Key:
Test in all cases: NCI tumour cell line growth inhibition, 48 h
[1] = system: CAKI-1
[2] = system: OVCAR-4
[3] = system: TK-10
[4] = system: OVCAR-8
[5] = system: NCI-H226
[6] = system: SF-539
[7] = system: NCI-H460
[8] = system: RPMI-8226
[9] = system: ACHN
[10] = system: MDA-N
[11] = system: A549
[12] = system: MOLT-4
[13] = system: UACC-62
[14] = system: SNB-75
[15] = system: NCI/ADR-RES
[16] = system: HCC 2998
[17] = system: M14
[18] = system: SW-620
[19] = system: HT-29
[20] = system: UO-31

| Compound | GI50 [1] | GI50 [2] | GI50 [3] | GI50 [4] | GI50 [5] | GI50 [6] | GI50 [7] | GI50 [8] | GI50 [9] | GI50 [10] | GI50 [11] | GI50 [12] | GI50 [13] | GI50 [14] | GI50 [15] | GI50 [16] | GI50 [17] | GI50 [18] | GI50 [19] | GI50 [20] |
| --- | --- | --- | --- | --- | --- | --- | --- | --- | --- | --- | --- | --- | --- | --- | --- | --- | --- | --- | --- | --- |
| COC(=O)c1ccc(Nc2nc3[nH]cnc3c(=O)[nH]2)cc1 | > 100 µM (inactive) | > 100 µM (inactive) | > 100 µM (inactive) | > 100 µM (inactive) | > 100 µM (inactive) | 67.3 µM (inactive) | > 100 µM (inactive) | 47.5 µM (inactive) | > 100 µM (inactive) | 32.9 µM (inactive) | > 100 µM (inactive) | 87.1 µM (inactive) | > 100 µM (inactive) | > 100 µM (inactive) | > 100 µM (inactive) | > 100 µM (inactive) | 59.2 µM (inactive) | > 100 µM (inactive) | 58.7 µM (inactive) |  |
| Nc1nc(-[n+]2ccc(-c3ccncc3)cc2)nc(Cl)c1Cl |  | > 100 µM (inactive) | 26.3 µM (inactive) |  | > 100 µM (inactive) | 26.8 µM (inactive) | > 100 µM (inactive) | 17.2 µM (inactive) | > 100 µM (inactive) | > 100 µM (inactive) | > 100 µM (inactive) | 18.9 µM (inactive) | > 100 µM (inactive) |  | > 100 µM (inactive) | > 100 µM (inactive) | > 100 µM (inactive) | 25.5 µM (inactive) | 88.5 µM (inactive) | 32.9 µM (inactive) |
| CC(=O)N[C@@H](Cc1ccc(O)cn1)C(=O)NCc1cccc(F)c1 | > 100 µM (inactive) | > 100 µM (inactive) | > 100 µM (inactive) |  | > 100 µM (inactive) | > 100 µM (inactive) | > 100 µM (inactive) | > 100 µM (inactive) | > 100 µM (inactive) | > 100 µM (inactive) | > 100 µM (inactive) |  | > 100 µM (inactive) |  | > 100 µM (inactive) | > 100 µM (inactive) | > 100 µM (inactive) | > 100 µM (inactive) | > 100 µM (inactive) | > 100 µM (inactive) |
| C[n+]1c2ccccc2c2/c(=C\C#N)c3ccccc3n21 | 23.8 µM (inactive) | 2.79 µM (inactive) | 1.69 µM (inactive) | 3.52 µM (inactive) | 3.81 µM (inactive) | 4.82 µM (inactive) | 4.35 µM (inactive) | 3.28 µM (inactive) | 4.91 µM (inactive) | 3.7 µM (inactive) | 6.92 µM (inactive) | 3.54 µM (inactive) | 10.7 µM (inactive) | 3.23 µM (inactive) | 32 µM (inactive) | 1.61 µM (inactive) | 4.15 µM (inactive) | 3.07 µM (inactive) | 3.82 µM (inactive) | 12.6 µM (inactive) |
| c1ccc(C2=NN=C3C(c4ccccc4)=Nc4ccccc4N3C2)cc1 | 43.7 µM (inactive) | 4.58 µM (inactive) | 5.08 µM (inactive) | 10 µM (inactive) | 14.9 µM (inactive) | 39.5 µM (inactive) | 5.07 µM (inactive) | 9.42 µM (inactive) | 34.4 µM (inactive) | 31.3 µM (inactive) | 30.6 µM (inactive) | 3.87 µM (inactive) | 30.3 µM (inactive) |  | 14.7 µM (inactive) | 22.4 µM (inactive) | 13.7 µM (inactive) | 10.5 µM (inactive) | 23.3 µM (inactive) | 7.43 µM (inactive) |
| CCCCCC(C)SC1(C(=O)OC)CC(OC(C)=O)C(NC(C)=O)C([C@H](OC(C)=O)[C@@H](COC(C)=O)OC(C)=O)O1 (stereo not given in full) | 93.3 µM (inactive) |  | > 100 µM (inactive) | 83.2 µM (inactive) | 40.6 µM (inactive) | 22.3 µM (inactive) | 78.7 µM (inactive) | 33.7 µM (inactive) | > 100 µM (inactive) | 90.6 µM (inactive) | 21.2 µM (inactive) | 27.3 µM (inactive) |  | > 100 µM (inactive) | > 100 µM (inactive) | 30.2 µM (inactive) | 71 µM (inactive) | > 100 µM (inactive) | 22.5 µM (inactive) | 38.5 µM (inactive) |
| O=C1C=CC(=O)c2cc(Sc3ccccc3)c(=O)ccc21 |  | 11 µM (inactive) | 17.1 µM (inactive) | 15.7 µM (inactive) | 23.1 µM (inactive) | 19.8 µM (inactive) | 22 µM (inactive) | 4.46 µM (inactive) | 9.89 µM (inactive) | 16.9 µM (inactive) | 20.1 µM (inactive) | 2.24 µM (inactive) | 15.5 µM (inactive) | 8.2 µM (inactive) | 22 µM (inactive) | 16.3 µM (inactive) | 17.8 µM (inactive) | 3.83 µM (inactive) | 20.6 µM (inactive) | 11.7 µM (inactive) |
| O=[N+]([O-])c1ccc(Oc2c(Cl)cc(S(=O)(=O)N/C(=N\O)Nc3ccc(Cl)cc3)cc2Cl)c(Cl)c1 | 14.8 µM (inactive) | 11.7 µM (inactive) | 16 µM (inactive) | 22.8 µM (inactive) | 25.3 µM (inactive) | 20.3 µM (inactive) | 15.6 µM (inactive) | 15.2 µM (inactive) | 15 µM (inactive) | 15.6 µM (inactive) | 17.1 µM (inactive) | 10.8 µM (inactive) | 14.4 µM (inactive) |  | 21.7 µM (inactive) | 16 µM (inactive) | 16.5 µM (inactive) | 24.9 µM (inactive) | 16.9 µM (inactive) | 13.7 µM (inactive) |
| CN(C)CC(O)CNC(=O)Nc1ccccc1 (stereo not given) | > 100 µM (inactive) | > 100 µM (inactive) | > 100 µM (inactive) | > 100 µM (inactive) | > 100 µM (inactive) | > 100 µM (inactive) | > 100 µM (inactive) | > 100 µM (inactive) | > 100 µM (inactive) | > 100 µM (inactive) | > 100 µM (inactive) |  | > 100 µM (inactive) | > 100 µM (inactive) | > 100 µM (inactive) | > 100 µM (inactive) | > 100 µM (inactive) | > 100 µM (inactive) | > 100 µM (inactive) | > 100 µM (inactive) |
| COC(=O)NN=C(c1ccc(Cl)cc1)c1ccc(Cl)cc1 | > 100 µM (inactive) | 40.3 µM (inactive) | 54.2 µM (inactive) | > 100 µM (inactive) | > 100 µM (inactive) | 93.8 µM (inactive) | > 100 µM (inactive) | > 100 µM (inactive) |  | > 100 µM (inactive) | 71.1 µM (inactive) | > 100 µM (inactive) | > 100 µM (inactive) | 87.9 µM (inactive) | > 100 µM (inactive) | > 100 µM (inactive) | > 100 µM (inactive) | > 100 µM (inactive) | 58.6 µM (inactive) | > 100 µM (inactive) |
| Nc1nc(Cl)nc(NCc2ccccc2)n1 | > 100 µM (inactive) | > 100 µM (inactive) | > 100 µM (inactive) | > 100 µM (inactive) | > 100 µM (inactive) | > 100 µM (inactive) | > 100 µM (inactive) | > 100 µM (inactive) | > 100 µM (inactive) | > 100 µM (inactive) | > 100 µM (inactive) | > 100 µM (inactive) | > 100 µM (inactive) | > 100 µM (inactive) | > 100 µM (inactive) | > 100 µM (inactive) | > 100 µM (inactive) | > 100 µM (inactive) | > 100 µM (inactive) |  |
| COc1ccc(C2CC(=O)Oc3ccccc3O2)cc1 (stereo not given) |  | > 100 µM (inactive) | > 100 µM (inactive) | > 100 µM (inactive) | > 100 µM (inactive) | > 100 µM (inactive) | > 100 µM (inactive) | > 100 µM (inactive) | > 100 µM (inactive) | 98.2 µM (inactive) | > 100 µM (inactive) | > 100 µM (inactive) | > 100 µM (inactive) | > 100 µM (inactive) | > 100 µM (inactive) | > 100 µM (inactive) |  | > 100 µM (inactive) | > 100 µM (inactive) | 88.5 µM (inactive) |
| COc1cc(C2c3cc4c(cc3OC3(OC)COC(=O)C23)OCO4)cc(OC)c1OC(C)=O (stereo not given) |  | > 57.8 µM (inactive) | 19.3 µM (inactive) | 2.52 µM (inactive) | 1.13 µM (inactive) | 0.374 µM (active) | 0.705 µM (active) | 1.81 µM (inactive) | 1.32 µM (inactive) | 0.206 µM (active) | 1.54 µM (inactive) | 3.96 µM (inactive) | 4.78 µM (inactive) | 0.384 µM (active) | 0.323 µM (active) | 2.75 µM (inactive) | 1.66 µM (inactive) | 0.552 µM (active) | 2.47 µM (inactive) | 6.28 µM (inactive) |
| COC(=O)[C@H](CNC(=O)/C=C/c1ccc(OC(C)=O)c(OC(C)=O)c1)NC(=O)/C=C/c1ccc(OC(C)=O)c(OC(C)=O)c1 | > 100 µM (inactive) | > 100 µM (inactive) |  | > 100 µM (inactive) | > 100 µM (inactive) | > 100 µM (inactive) | > 100 µM (inactive) | > 100 µM (inactive) | > 100 µM (inactive) | > 100 µM (inactive) | > 100 µM (inactive) | > 100 µM (inactive) | > 100 µM (inactive) | > 100 µM (inactive) | > 100 µM (inactive) | > 100 µM (inactive) | > 100 µM (inactive) | > 100 µM (inactive) | > 100 µM (inactive) |  |
